According to a melting point compilation (Tetko et al.; mined from patent text by program, amines drawn as free bases though some values may be those of a salt):

melting point [°C]	Structure (SMILES)
> 70	CCCCc1nc(C(C)(C)O)c(C(=O)OCc2oc(=O)oc2C)n1Cc1ccc(-c2ccccc2C(=O)O)cc1
165 to 166	CC(C)n1nc(-c2sc(NCCN3CCCCC3)nc2-c2ccccc2)ccc1=O
60 to 64	CCc1nn(C2CCCC2)c2cc(-c3cccs3)ccc12
194 to 197	Nc1ncnc2c1ncn2C[C@@H](CF)OCP(=O)(O)O
159 to 160	CCOC(=O)CCN1CCN2c3ccccc3Cc3ccccc3C2C1 (configuration not stated)
215 to 230	COc1ccc(N2C(=O)N(c3cccc(C(N)=O)c3)c3nc(Nc4cccc(CCN(C)C)c4)ncc3C2C)cc1 (configuration not stated)
83 to 87	Nc1sc2c(c1C(=O)c1cc3ccccc3o1)CCN(Cc1ccccc1)C2
60 to 63	O=[N+]([O-])c1ccc(OCC(O)CCCl)cc1 (configuration not stated)
105 to 107	COc1ccc(C(=O)C(C(=O)Nc2cc(N)ccc2Cl)N2C(=O)c3ccccc3C2=O)cc1 (configuration not stated)
138 to 140	CCOC(=O)[C@@H](O)[C@@H]1OC(=O)c2cc(OC)c(OCc3ccccc3)cc21
182 to 184	C=C(c1ccccc1)c1ccc(NC(=S)NC(=O)OC)c(NC(=S)NC(=O)OC)c1
99 to 100	Cc1cccc(C)c1OC1CN(C(c2ccccc2)c2ccccc2)C1
73 to 77	COc1ccc2nc([C@H](CC(C)C)NC(=O)OCc3ccccc3)[nH]c2c1
93 to 94	COc1ccc(CNCC(O)c2ccccc2)cc1OC (configuration not stated)
97 to 105	COC(=O)C1=C(C)NC(C)=C(C(=O)OCCN2CCN(S(=O)(=O)c3ccc(Cl)cc3)CC2)C1c1cccc([N+](=O)[O-])c1 (configuration not stated)
260	Cc1cc(-c2cc(C(F)(F)F)nc(-n3cnc(-c4ccc(S(N)(=O)=O)s4)c3)n2)ccc1C(F)(F)F
107 to 109	CCOC(=O)c1cnc2nn(C)cc2c1OC(C)C
105 to 106	CCCN(CC)Cc1nc2cc(OC)c(OC)cc2c(-c2ccc(OC)c(OC)c2)c1C(=O)OCC
76 to 79	CC(=O)O[C@H]1CC=CO[C@@H]1COS(=O)(=O)c1ccc(C)cc1
143	C=CC(=O)Nc1cc2c(N(C(C)=O)c3ccc(F)c(Cl)c3)ncnc2cc1OCCCN1CCOCC1
125 to 126	CNC(=O)CCNC(=O)NOCCCl
130 to 133	CSC(Nc1cc(C(F)(F)F)cc(C(F)(F)F)c1)=C(C#N)S(=O)(=O)C(C)C
118	CCCC(CCC)C(=O)c1ccc(O)c(C(=O)O)c1

melting point [°C]	Structure (SMILES)
120 to 123	Oc1cccc2[nH]c(-c3ccccc3)cc12
172	COc1cc(Nc2nccc(Nc3ccc(CCO)cc3)n2)cc(OC)c1OC
136 to 138	O=C1NCSc2ccsc21
173 to 174	Nc1nc(-c2ccccn2)nc2ccccc12
284 to 285	CCN1c2ncccc2C(=O)N(C)c2ccc(-c3c[nH]c(C(N)=O)c3)nc21
128 to 130	O=C(NCCCOc1cccc(CN2CCCCC2)c1)Nc1ccc2c(c1)OCO2
72 to 74	CCOC(=O)C(=Cc1cccc(O)c1)C(=O)OCC
124 to 125	O=S1(=O)CCN2CCN[C@H](c3ccc(Oc4ccccc4)cc3)C2=N1
121 to 122	CC(=O)OCCn1nc(-c2cc(C(C)(C)C)c(O)c(C(C)(C)C)c2)c2ccc(C(C)C)nc21
172 to 173	CC(C)C1NC(=O)CN1C(=O)C(Cl)Cl (configuration not stated)
168 to 170	O=C(O)c1cccc(N2CCc3ccccc32)c1
100 to 101	CC(C)C[C@@H]1NC(=O)O[C@H]1CCS(=O)(=O)CCc1ccccc1
97 to 98	O=CNCc1ccc(CN2CCN(c3ncccn3)CC2)cc1
214 to 216	O=c1[nH]nc(-c2ccc(C(F)(F)F)cc2)o1
159 to 161	COC(=O)[C@H]1C[C@H](C(=O)O)Nc2cccc(Cl)c21 (relative stereo)
196 to 198	CCC(C)(C)Nc1c(NCc2cccc(C)c2C)c(=O)c1=O
173	CC(C)=CCN1Cc2cc(Cl)c(Cl)c3[nH]c(=S)n(c23)C[C@@H]1C
139 to 141	CCCCOCC(COCc1ccccc1)OCn1cnc2c(O)nc(NC(C)=O)nc21 (configuration not stated)
138	CN(C(=O)Cc1ccccc1)c1cccc(-c2ccc(CC3SC(=O)NC3=O)cc2)c1 (configuration not stated)
100 to 102	Cc1cccc(-c2n[nH]cc2-c2ccc(F)c(-c3ccc(S(C)(=O)=O)cc3)c2)n1
> 300	Cc1cc2nc(C=Cc3ccc(C(=O)O)cc3)oc2cc1C
180 to 182	CC(=O)Oc1ccc2c(c1)CCC1C2C(O)CC2(C)C(=O)CCC12 (configuration not stated)
215 to 217	COc1cc2ccc(-c3ccccc3N)cc2cc1OC

melting point [°C]	Structure (SMILES)
229 to 234	O=C(/C=C/c1ccc(C(F)(F)F)cc1-c1ccncc1)Nc1ccc2[nH]ccc2c1
147 to 148	COc1cc(OCc2nc(-c3ccco3)oc2C)ccc1COc1nn(Cc2ccccc2)cc1C=O
145 to 146	CC(Sc1nnnn1-c1ccccc1)C(=C(C#N)C#N)c1ccccc1 (configuration not stated)
166 to 168	CCCNC(=O)[C@H](Cc1ccccc1)NC(=O)CNC(=O)OC(C)(C)C
160 to 161	O=S(=O)(c1ccc(Cl)cc1)C(c1cc(F)ccc1F)c1ccncc1Cl (configuration not stated)
104	CCSc1cc(=O)c2c(O)cc(O)c([C@H]3CCN(C)C[C@H]3O)c2o1 (relative stereo)
198 to 199	CCC(CC)CNC(=O)c1ccc2cccc(Cc3ccc(C(=O)O)cc3OC)c2c1
234 to 236	O=C1c2cccc3c(Cl)ccc(c23)C(=O)N1O
98 to 99	O=C(c1ccccc1F)c1cc(Cl)ccc1CCCN1C(=O)c2ccccc2C1=O
47 to 50	O=C(CC=C(Cl)Cl)Oc1ccc(F)cc1
160 to 162	C[Si](C)(C)c1cccc2cc(C(=O)Nc3ccc(N4CCC4)nc3)n(Cc3cccc(F)c3)c12
211 to 214	C=CCc1c2n(c3ccccc13)C(=O)C(=Cc1ncn(C(c3ccccc3)(c3ccccc3)c3ccccc3)c1C)CC2
296	O=C1CCC(N2Cc3c(O)cccc3C2=O)C(=O)N1 (configuration not stated)
207 to 208	CC(C)CC1(C(CCN2C(=O)c3cc(Cl)c(Cl)cc3C2=O)C(=O)NO)CCN(CCc2ccccc2)C1=O (configuration not stated)
192 to 193	Cc1ncc(C#N)c(Nc2cccc3[nH]ccc23)c1-c1cc2ccccc2o1
160 to 165	Cc1c(C(=O)O)cccc1S(=O)(=O)CCO
80 to 82	O=[N+]([O-])c1ccc(C2SCCS2)cc1
113 to 114	CCn1nc(C(F)(F)F)c(CS(=O)(=O)C2=NOC(C)(CCl)C2)c1S(C)(=O)=O (configuration not stated)
135 to 138	COc1cc(C)nc(C)c1C(=O)OC(C)c1nc2c(c(=O)n(C)c(=O)n2C)n1C (configuration not stated)
203 to 204	CCCCNC(=O)Nc1ccc(NC)cc1C(=O)NCC1CCN(C(c2ccccc2)c2ccccc2)CC1
39 to 41	N#CSc1ccc(F)c(C#N)c1
137 to 138	CC(C)(C)n1c(Cl)c(-c2ccc(Oc3ccccc3)cc2)c2c(N)ncnc21
144 to 145	O=C1C=C(c2ccc(Cl)cc2)C(=O)O1

melting point [°C]	Structure (SMILES)
101 to 103	C=CCOC(=O)Nc1cc(-c2cccc(Cl)c2)sc1C(=O)OC
142 to 145	CCCN1CCCCC1C(=O)Nc1c(C)cccc1C (configuration not stated)
107 to 110	CCN(CC)CCCNC(=O)C1=C(O)c2ccccc2S(=O)(=O)N1C
92.5 to 94	CC1=CC(O)C(OC(=O)c2ccccc2Cl)C(C)(C)CC1=O (configuration not stated)
114 to 119	COc1ccc(-c2csc3nc(C)c(CCN4CCC(c5noc6cc(F)ccc56)CC4)c(=O)n23)cc1
162 to 164	COc1ccc(CCc2ccc(NC(=O)c3ccc(C)cc3O)cc2)cc1OC
162 to 164	CC1=CC(=O)C(C(=O)C=Cc2cccs2)C(=O)O1 (configuration not stated)
197	Cc1onc(O)c1-c1ccccc1[N+](=O)[O-]
222 to 223	O=C(O)[C@@H](CCN1C(=O)c2ccccc2C1=O)Oc1c(Br)cc(-c2c3ccccc3cc3sc4ccccc4c23)cc1Br
165	Clc1ccc2c3c([nH]c2c1)C1=CCCCN1CC3
84 to 88	[N-]=[N+]=Nc1c([N+](=O)[O-])cnn1-c1c(Cl)cc(C(F)(F)F)c(Cl)c1Cl
190 to 192	NC(=O)c1cc(-c2cccc(Cl)c2)sc1N
155	C[C@H]1C=CC2=C[C@@H](O)C[C@H](OC(=O)CC(C)(C)C)[C@@H]2[C@H]1CC[C@@H]1C[C@@H](O)CC(=O)O1
120 to 125	COC(=O)COc1c2ccccc2cc2c1c1c(C(N)=O)cccc1n2Cc1ccccc1
237 to 242	CCCOc1ccc2c(c1)C(c1ccc(OC)cc1OCC(=O)O)C(CN)C2c1ccc2c(c1)OCO2 (configuration not stated)
80 to 84	O=C(C=Cc1ccc(F)cc1)c1c(F)c(F)c(F)c(F)c1F
205	CC(=O)OC1(C(N)=O)CCCc2cc(C)cnc21 (configuration not stated)
190 to 191	CN(C)CCN(CCN(C)C)c1ccc(-c2nc3ccccc3[nH]2)cc1
74 to 77	CCOC(=O)C1=C(C)NC(C)=C(C(=O)OCCN2CCN(C(c3ccc(C)cc3)c3ccc(C)cc3)CC2)C1c1cccc(C(F)(F)F)c1 (configuration not stated)
134 to 135	CCc1ccc(-n2nc(Cl)cc2-c2ccc(S(C)(=O)=O)cc2)cc1[N+](=O)[O-]
64.7 to 65.8	COc1ccc(C(=O)c2cccc(C)c2Cl)cc1
161 to 162	COc1cc(/C(C#N)=C\c2ccc(C)c(N)c2)cc(OC)c1OC

Structure (SMILES)	melting point [°C]
ON=C1CN2[C@H]3CC[C@@H]2[C@@H]1[C@@H](c1ccc(Cl)c(Cl)c1)C3	45 to 52
CC(C)CCC(=O)N[C@@H]1N=C(c2ccccc2)c2ccccc2N(C)C1=O	123 to 125
COc1ccc(C(=O)c2cn3c4c(cccc24)OCC3CN2CCOCC2)cc1 (configuration not stated)	209 to 214
O=c1[nH]sc2c1c(=O)c1cc(F)c(N3CCNCC3)cc1n2C1CC1	> 275
CN1CCC2(C)c3cc(O)cc(Cl)c3N(C)C12 (configuration not stated)	152 to 154
O=C(/C=C/c1c[nH]cn1)Oc1ccc([N+](=O)[O-])cc1	220 to 222
